Type in all cases: cell-based
The test system of one data set is CHIKV. Put plainly: Antiviral activity against CHIKV in NHDF cells. As to conditions: Chikungunya virus; for EC90: read-out: CHIKV (NHDF cells) EC90; for log reduction at 10 µM: read-out: CHIKV (NHDF cells) VTR (virus titer reduction).
The nature of data set [1]: Cytotoxicity (CC50) in NHDF cells. The conditions noted are these: human, CHIKV. The procedure: (§1) As used herein, “CC50” is intended to refer to the concentration of a substance (e.g., a compound or a drug) that is required for 50% reduction of cell viability. In one aspect, an CC50 can refer to the concentration of a substance that is required for 50% reduction (i.e., cytotoxicity) in vivo, as further defined elsewhere herein.
VTR=Virus titer reduction in log at 10 μM concentration. NT: not tested, ND: not determined.

The test system of a further data set is VEEV. The data set is described as follows: microbe, parasite or virus in culture. As to conditions: Venezuelan equine encephalitis virus, NHDF; for EC90: read-out: VEEV (NHDF cells) EC90; for log reduction at 10 µM: read-out: VEEV (NHDF cells) VTR (virus titer reduction).
The next data set relates to ZIKA. Put plainly: Antiviral activity against ZIKA in HEK 293 cells. The conditions noted are these: Zika virus; for EC90: HEK293, read-out: ZIKA (HEK 293 cells) EC90; for log reduction at 10 µM: HEK293, read-out: ZIKA (HEK 293 cells) VTR (virus titer reduction).
Data set [2] in a line: Cytotoxicity (CC50) in HEK293 cells. The conditions noted are these: human, WNV. Here is the method:
as §1
The antiviral activity against Alpharviruses evaluated in HEK293 cells (4 hours pre-incubation with compound before infected with virus) is shown in Table 2 below. VTR=Virus titer reduction in log at 10 μM concentration. NT: not tested, ND: not determined

The next data set has as its system DENV. Put plainly: Antiviral activity against DENV in HEK293 cells. The conditions noted are these: Dengue virus; for EC90: HEK293, read-out: DENV (HEK293 cells) EC90; for log reduction at 10 µM: HEK293, read-out: DENV (HEK293 cells) VTR (virus titer reduction).
In the next data set the test system is WNV. Put plainly: Antiviral activity against WNV in HEK293 cells. As to conditions: West Nile virus; for EC90: HEK293, read-out: WNV (HEK293 cells) EC90; for log reduction at 10 µM: HEK293, read-out: WNV (HEK293 cells) VTR (virus titer reduction).
In the next data set the test system is H1N1 strain. Put plainly: Antiviral activity against Influenza H1N1 strain in MDCK cells. As to conditions: Influenza A virus; for log reduction at 20 µM: at 20 μM concentration, 4-6 hours pre-incubation, read-out: H1N1 strain (MDCK cells) VTR (virus titer reduction); for EC90: 4-6 hours pre-incubation with compound. The procedure:
(§2) The antiviral activity against Influenza viruses (H1N1 and H3N2 strains) evaluated in MDCK cells (4-6 hours pre-incubation with compound) shown in Table 5 below. VTR=Virus titer reduction in log at 20 μM concentration. NT: not tested, ND: not determined.

Another data set has as its system H3N2 strain. Put plainly: Antiviral activity against Influenza H3N2 strain in MDCK cells. The conditions noted are these: Influenza A virus; for log reduction at 20 µM: at 20 μM concentration, 4-6 hours pre-incubation, read-out: H3N2 strain (MDCK cells) VTR (virus titer reduction); for EC90: 4-6 hours pre-incubation with compound. The procedure: as §2
The nature of data set [3]: Cytotoxicity (CC50) in MDCK cells. The conditions noted are these: dog, H1N1. The procedure: as §1, §2

The text below walks through data of patent publication US11858956B2, “6-aza-nucleoside prodrugs as antiviral agents for treating virus infections” (Southern Research Institute, priority 2020, dated 2024).

For the compound `CCC(CC)COC(=O)[C@H](C)NP(=O)(OC[C@H]1O[C@@H](n2ncc(=O)[nH]c2=O)[C@H](O)[C@@H]1O)Oc1ccccc1` (mixture of isomers) [Compound 3, 2-ethylbutyl ((((2R,3S,4R,5R)-5-(3,5-dioxo-4,5-dihydro-1,2,4-triazin-2(3H)-yl)-3,4-dihydroxytetrahydrofuran-2-yl)methoxy)(phenoxy)phosphoryl)-L-alaninate], the EC90 with CHIKV is > 10 µM; with VEEV, > 10 µM; in the data set with ZIKA it was 3.3 µM; in the data set with DENV it was 2.5 µM; in the data set with WNV, 2.9 µM. The log reduction at 10 µM in the data set on CHIKV came to 0; with VEEV, 0; in the data set on ZIKA, 2.4; in the data set with DENV, 3.5; in the data set with WNV it was 3.2. Further, the 50% cytotoxic concentration (CC50) in [1] and in [2] was > 40 µM in each case.

Take `CC(C)OC(=O)[C@H](C)NP(=O)(OC[C@H]1O[C@@H](n2ncc(=O)[nH]c2=O)[C@H](O)[C@@H]1O)Oc1ccccc1` (mixture of isomers) [Compound 5, isopropyl ((((2R,3S,4R,5R)-5-(3,5-dioxo-4,5-dihydro-1,2,4-triazin-2(3H)-yl)-3,4-dihydroxytetrahydrofuran-2-yl)methoxy)(phenoxy)phosphoryl)-L-alaninate]: the log reduction at 20 µM was 0.2 in the data set on H1N1 strain and -0.1 in the data set with H3N2 strain. For the same compound, the EC90 in the data set with CHIKV is > 10 µM; in the data set with VEEV, > 10 µM; with ZIKA, > 30 µM; with DENV it was > 30 µM; with WNV it was > 30 µM. Also, the values for the log reduction at 10 µM in the data set with CHIKV and in the data set with VEEV were 0.15 and 0, respectively. Moreover, the cytotoxic concentration (CC50) was > 40 µM in data set [1] and > 100 µM in data set [3].

As to `N[C@@H](Cc1ccccc1)C(=O)OC[C@H]1O[C@@H](n2ncc(=O)[nH]c2=O)[C@H](O)[C@@H]1O` [Compound 11, ((2r,3s,4r,5r)-5-(3,5-dioxo-4,5-dihydro-1,2,4-triazin-2(3H)-yl)-3,4-dihydroxytetrahydrofuran-2-yl)methyl L-phenylalaninate], the concentration for an effect of 90% (EC90) is 0.14 µM in the data set with H1N1 strain; 0.78 µM in the data set with H3N2 strain; > 10 µM in the data set on CHIKV; > 30 µM with ZIKA; > 30 µM in the data set on DENV; > 30 µM in the data set with WNV. In addition, the log reduction at 20 µM in the data set with H1N1 strain and in the data set on H3N2 strain was 3.4 throughout. For the same compound, the log reduction at 10 µM in the data set on CHIKV is 0.05. Besides, the CC50 in [1] was > 40 µM; in data set [3], > 20 µM.

Regarding `CC[C@@H](C)[C@@H](N)C(=O)OC[C@H]1O[C@@H](n2ncc(=O)[nH]c2=O)[C@H](O)[C@@H]1O` [Compound 12, ((2r,3s,4r,5r)-5-(3,5-dioxo-4,5-dihydro-1,2,4-triazin-2(3H)-yl)-3,4-dihydroxytetrahydrofuran-2-yl)methyl D-isoleucinate], the EC90 in the data set with CHIKV was 0.89 µM; in the data set on DENV, 0.5 µM. The log reduction at 10 µM was 4.55 in the data set with CHIKV and 3.9 in the data set with DENV. Besides, the results for the CC50 in [1] and in [2] were > 40 µM and 6.2 µM, respectively.

For the compound `CC[C@H](C)[C@@H](N)C(=O)OC[C@H]1O[C@@H](n2ncc(=O)[nH]c2=O)C(O)C1O` (stereo partly drawn) [Compound 13, ((2r,3s,4r,5r)-5-(3,5-dioxo-4,5-dihydro-1,2,4-triazin-2(3)-yl)-3,4-dihydroxytetrahydrofuran-2-yl)methyl D-alloisoleucinate], the log reduction at 20 µM in the data set with H1N1 strain turned out to be 3.6; in the data set with H3N2 strain, 2.8. Moreover, the EC90 in the data set on CHIKV amounted to 0.51 µM; in the data set with DENV, 0.5 µM. Besides, the log reduction at 10 µM in the data set with CHIKV was 4.3; with DENV it was 4. Further, the values for the CC50 in data set [1] and in [2] were > 40 µM and 6.7 µM, respectively.

Turning to `CCOP(=O)(OCC)OC[C@H]1O[C@@H](n2ncc(=O)[nH]c2=O)C(O)C1O` (stereo partly drawn) [Compound 16, (2r,3s,4r,5r)-5-(3,5-dioxo-4,5-dihydro-1,2,4-triazin-2(3H)-yl)-3,4-dihydroxytetrahydrofuran-2-yl) methyl diethyl phosphate], the EC90 in the data set with H1N1 strain is > 100 µM; in the data set on VEEV it was 10.1 µM; in the data set on ZIKA, > 10 µM; in the data set on DENV, > 30 µM; in the data set on WNV, > 10 µM. Moreover, in the data set with VEEV, the log reduction at 10 µM was found to be 1.05. Also, the 50% cytotoxic concentration (CC50) in data set [2] is > 40 µM; in [3] it was > 100 µM.

Take `CCCCCCCCCCCC(=O)Nc1cnn([C@@H]2O[C@H](CO)[C@@H](O)[C@H]2O)c(=O)n1` [Compound 19, N-(2-((2r,3r,4s,5r)-3,4-dihydroxy-5-(hydroxy-methyl)tetrahydrofuran-2-yl)-3-oxo-2,3-dihydro-1,2,4-triazin-5-yl)dodecanamide]: the EC90 is 3.16 µM with H1N1 strain; 12.1 µM in the data set on H3N2 strain; 1.1 µM in the data set on ZIKA; 0.6 µM in the data set on DENV; 0.7 µM in the data set with WNV. Moreover, the log reduction at 20 µM with H1N1 strain and in the data set on H3N2 strain was 3.3 in each case. For the same compound, the figures for the log reduction at 10 µM in the data set on ZIKA, with DENV and with WNV were 2.6, 2.1 and 4, respectively. In addition, the CC50 in data set [2] is > 40 µM; in data set [3], > 20 µM.

Regarding `O=C(Nc1cnn([C@@H]2O[C@H](CO)[C@@H](O)[C@H]2O)c(=O)n1)C1CC1` [Compound 21, N-(2-((2R,3R,4S,5R)-3,4-dihydroxy-5-(hydroxymethyl)tetrahydro-furan-2-yl)-3-oxo-2,3-dihydro-1,2,4-triazin-5-yl)cyclopropane-carboxamide], the 90% effect concentration (EC90) came to 2.8 µM in the data set with H1N1 strain; 3.9 µM in the data set on H3N2 strain; 4.9 µM in the data set on CHIKV; 0.2 µM with ZIKA; 0.34 µM in the data set with DENV; 0.4 µM with WNV. The log reduction at 20 µM with H1N1 strain amounted to 3.6; in the data set with H3N2 strain it was 3. For the same compound, the log reduction at 10 µM with CHIKV stood at 1.7; in the data set on ZIKA, 4; with DENV it was 3.4; in the data set on WNV it was 4.5. Besides, the values for the CC50 in data set [2] and in [3] were 18.9 µM and > 20 µM, respectively.

With `CCOC(=O)Nc1cnn([C@@H]2O[C@H](CO)[C@@H](O)[C@H]2O)c(=O)n1` [Compound 23, ethyl (2-((2R,3R,4S,5R)-3,4-dihydroxy-5-(hydroxy-methyl)tetrahydrofuran-2-yl)-3-oxo-2,3-dihydro-1,2,4-triazin-5-yl)carbamate], the EC90 in the data set on H1N1 strain is 3.78 µM; in the data set with H3N2 strain, 6.3 µM; with CHIKV it was > 10 µM; with ZIKA it was 0.3 µM; in the data set with DENV, 1.3 µM. For the same compound, the log reduction at 20 µM with H1N1 strain stood at 3.6; in the data set with H3N2 strain it was 2. Also, the figures for the log reduction at 10 µM with CHIKV, in the data set with ZIKA and in the data set on DENV were 0, 3 and 3.3, respectively. For the same compound, the CC50 in [2] is 22.4 µM; in data set [3], > 20 µM.

Turning to `CC[C@H](C)[C@H](N)C(=O)OC[C@H]1O[C@@H](n2ncc(N)nc2=O)[C@H](O)[C@@H]1O` [Compound 25, ((2r,3s,4r,5r)-5-(5-amino-3-oxo-1,2,4-triazin-2(3H)-yl)-3,4-dihydroxytetrahydrofuran-2-yl)methyl L-isoleucinate], the EC90 with CHIKV was 0.85 µM; in the data set with VEEV it was 1.5 µM; in the data set with DENV, 5.1 µM. Besides, the log reduction at 10 µM in the data set on CHIKV is 2.58; in the data set on VEEV, 2.17; in the data set on DENV it was 2. For the same compound, the 50% cytotoxic concentration (CC50) in data set [1] and in [2] was > 40 µM in each case.

One may read the EC90 as the concentration at which the effect reaches the 90% level. Broadly, the CC50 is the concentration giving 50% cytotoxicity. A high value points to better tolerance by the cells.
